Test results taken from the NIST ThermoML archive (doi:10.1021/acs.jced.6b00497).
± gives the expanded uncertainty stated by the source.

Details: Crystal; DTA

Normal melting temperature: 220.00 ± 1 °C
Structure (SMILES): O=C(O)c1cc(N=Nc2ccc(S(=O)(=O)Nc3ccccn3)cc2)ccc1O [Sulfasalazine]
